Data as given in patent US20130202698A1 (NANJING SANHOME PHARMACEUTICAL CO., LTD., priority 2005, published 2013).
Marks after values point to notes of the source that are not given here.

How the values were obtained:
[1] = Phase II clinical trial, oral tablets, departments of obstetrics/gynecology, adverse events; type: in vivo, human; settings: human, in vivo, po
Description: Double-blinded randomized controlled trials were carried out to compare the adverse events of oral levo-ornidazole with racemate treatment groups. Two separate studies were conducted for patients with infections from either department of stomatology or obstetrics/gynecology.

[2] = test system: Strychnine-induced convulsion; assay: Anticonvulsant effects on Strychnine-induced convulsion in mice; type: in vivo; settings: n=10; for Convulsion Latency: Mean ± SD
Description: (§1) Mice are randomized into 4 treatment groups (n=10 with half male and half female): dextro- or levo-ornidazole (dosage 40, 80, 160 mg/kg), vehicle control group (15% propylene glycol in 0.9% sodium chloride, 20 mL/kg) and the positive control group. Animals are treated with known convulsion-inducing agents, followed by the drug or vehicle control given intravenously. The dose volume is 20 mL/kg with an infusion rate of 0.2 mL/10 seconds. The anticonvulsant effects are observed and recorded (see Tables 2-6).

[3] = test system: Remefline-induced convulsion; assay: Anticonvulsant effects on Remefline-induced convulsion in mice; type: in vivo
Description: In one experiment, the anticonvulsant effects of levo- and dextro-ornidazole against drug-induced convulsions in mice were compared. In four different animal convulsion models, mice were treated by four different seizure-inducing agents, including Remefline, Strychnine, isoniazid, thiosemicarbazide. Levo- or dextro-ornidazole was administered along with the seizure-inducing agents, and several outcomes were measured, including rate of convulsion, mortality rate, time to convulsion (latency), and time to death. Diazepam was used as a positive anticonvulsant control.
as §1, with “seconds.” for “seconds. The anticonvulsant effects are observed and recorded (see Tables 2-6).”

Purkinje cells = settings: dog, in vivo, 200 mg/kg
Description: Male and female Beagle dogs were kept in laboratory conditions for 1 week to observe general health conditions. […] Animals were treated at dose of I.V. 200 mg/kg for ornidazole enantiomers, or 10 mL/kg for vehicle control for 2 weeks, then sacrificed for anatomical and pathological examinations.
Quantitative data were analyzed by group test and qualitative data by simplified direct probability method. A 10×10 area under low magnification was used to count cerebellar Purkinje cells.

[4] = rat, in vivo
glutamate = assay: Effects on excitatory neurotransmitter glutamate levels in mice brain; type: in vivo
Description: In another experiment, the effects on excitatory neurotransmitter levels by levo- and dextro-ornidazole were compared.

[5] = test system: thiosemicarbazide-induced convulsion; assay: Anticonvulsant effects on thiosemicarbazide-induced convulsion in mice; type: in vivo; settings: n=10; for Convulsion Latency / Time to Death: Mean ± SD
Description: as §1

[6] = test system: isoniazid-induced convulsion; assay: Anticonvulsant effects on isoniazid-induced convulsion in mice; type: in vivo; settings: Mean ± SD, n=10
Description: as §1

[7] = Acute toxicity in mice (LD50); settings: mouse, in vivo

**Q.** What does the source list for `Cc1ncc([N+](=O)[O-])n1C[C@H](O)CCl` [L-ornidazole, S-(−)-ornidazole]?
**A.** Abdominal pain, # of Patients with AE [1]: 0; Abdominal pain, Incidence (%) [1]: 0.00%; Appetite drop, # of Patients with AE [1]: 0; Appetite drop, Incidence (%) [1]: 0.00%; Bitter taste, # of Patients with AE [1]: 0; Bitter taste, Incidence (%) [1]: 0.00%; Bloating, # of Patients with AE [1]: 0; Bloating, Incidence (%) [1]: 0.00%; Blurred vision, # of Patients with AE [1]: 0; Blurred vision, Incidence (%) [1]: 0.00%; Breast tenderness, # of Patients with AE [1]: 0; Breast tenderness, Incidence (%) [1]: 0.00%; Chest tightness, # of Patients with AE [1]: 0; Chest tightness, Incidence (%) [1]: 0.00%; Dazzle, # of Patients with AE [1]: 0; Dazzle, Incidence (%) [1]: 0.00%; Diarrhea, # of Patients with AE [1]: 0; Diarrhea, Incidence (%) [1]: 0.00%; Dizziness, # of Patients with AE [1]: 0; Dizziness, Incidence (%) [1]: 0.00%; Dry mouth, # of Patients with AE [1]: 0; Dry mouth, Incidence (%) [1]: 0.00%; Headache, # of Patients with AE [1]: 0; Headache, Incidence (%) [1]: 0.00%; Hypersomnia, # of Patients with AE [1]: 0; Hypersomnia, Incidence (%) [1]: 0.00^## %; Hypodynamia, # of Patients with AE [1]: 0; Hypodynamia, Incidence (%) [1]: 0.00%; Nausea, # of Patients with AE [1]: 1; Nausea, Incidence (%) [1]: 0.70^# %; Oral malodor, # of Patients with AE [1]: 1; Oral malodor, Incidence (%) [1]: 0.70%; Patients with adverse events (total) [1]: 5 patients; Rash, # of Patients with AE [1]: 1; Rash, Incidence (%) [1]: 0.70%; Stomach ache, # of Patients with AE [1]: 1; Stomach ache, Incidence (%) [1]: 0.70%; Stomach discomfort, # of Patients with AE [1]: 1; Stomach discomfort, Incidence (%) [1]: 0.70%; Total incidence rate of adverse events [1]: 3.50%; Vertigo, # of Patients with AE [1]: 0; Vertigo, Incidence (%) [1]: 0.00^## %; Vomiting, # of Patients with AE [1]: 0; Vomiting, Incidence (%) [1]: 0.00%; Convulsion Latency ([2]; 40 mg/kg i.v.): 5.3 ± 2.3 min; Mortality Rate ([2]; 40 mg/kg i.v.): 10/10; Convulsion Latency ([2]; 80 mg/kg i.v.): 7.5 ± 3.3 min; Mortality Rate ([2]; 80 mg/kg i.v.): 10/10; Convulsion Latency ([2]; 160 mg/kg i.v.): 8.6 ± 2.3 min; Mortality Rate ([2]; 160 mg/kg i.v.): 6/10^#; Mortality Rate ([3]; 40 mg/kg i.v., n=10): 10/10; Rate of Convulsion ([3]; 40 mg/kg i.v., n=10): 10/10; Rate of Convulsion ([3]; 80 mg/kg i.v., n=10): 10/10^#; Mortality Rate ([3]; 80 mg/kg i.v., n=10, listed as Levo-ornidazole, 80 mg/kg): 10/10^##; Mortality Rate ([3]; 80 mg/kg i.v., n=10, listed as levo-ornidazole, 80 mg/kg): 10/10; Mortality Rate ([3]; 160 mg/kg i.v., n=10): 1/10**; Rate of Convulsion ([3]; 160 mg/kg i.v., n=10): 9/10^##; Purkinje cell morphology (Purkinje cells): did not cause significant change; Distribution in different region of brain, levo- vs dextro-ornidazole [4]: Similar; Effect on glutamate levels in cerebrum and cerebellum (glutamate; FIG. 4, listed as Levo-ornidazole): little effect; Effect on glutamate levels in cerebrum and cerebellum (glutamate; FIG. 4, listed as levo-ornidazole): little effects; Convulsion Latency ([5]; 40 mg/kg i.v.): 77.1 ± 16.8 min; Time to Death ([5]; 40 mg/kg i.v.): 122.6 ± 29.8 min; Convulsion Latency ([5]; 80 mg/kg i.v.): 85.0 ± 30.9 min; Time to Death ([5]; 80 mg/kg i.v.): 116.7 ± 38.7 min; Mortality Rate ([5]; 160 mg/kg i.v.): 9/10^##; Rate of Convulsion ([5]; 160 mg/kg i.v.): 9/10^##; Convulsion Latency ([6]; 40 mg/kg i.v.): 37.1 ± 5.8 min; Time to Death ([6]; 40 mg/kg i.v.): 47.6 ± 5.6 min; Convulsion Latency ([6]; 80 mg/kg i.v.): 38.3 ± 6.3 min; Time to Death ([6]; 80 mg/kg i.v.): 48.3 ± 9.6 min; Convulsion Latency ([6]; 160 mg/kg i.v.): 45.0 ± 7.8 min; Time to Death ([6]; 160 mg/kg i.v.): 75.2 ± 19.0 min; LD50 ([7]; intravenous injection): 332 mg/kg; LD50 ([7]; ip, intraperitoneal injection): 1380 mg/kg; LD50 ([7]; oral gavage): 1070 mg/kg
